Test system: NCI-H196 SCLC complex tumor spheroid viability
Assay: Anticancer human tumor NCI-H196 cell line growth inhibition;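 also: spheroids exposed to compounds for 7 days before readout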;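 as to viability, T/C: 100% = DMSO vehicle control wells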
Conditions: for IC50: curve of first compound; for viability, T/C: stronger effect = lower value
In short: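 Complex tumor spheroids combined malignant cells with endothelial cells and mesenchymal stem cells. DNA-damaging drugs and DNA repair inhibitors were tested alone and in combination, at half-log dilutions down from clinical Cmax (top 10 microM if Cmax unknown), 0.25% DMSO final.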

[1] = second compound 30 pM, first compound 0.00949 µM
[2] = second compound 30 pM, first compound 0.03 µM
[3] = second compound 30 pM, first compound 0.0949 µM
[4] = second compound 30 pM, first compound 0.3 µM
[5] = second compound 30 pM, first compound 0.949 µM
[6] = second compound 30 pM, first compound 3 µM
[7] = second compound 94.9 pM, first compound 0.00949 µM
[8] = second compound 94.9 pM, first compound 0.03 µM
[9] = second compound 94.9 pM, first compound 0.0949 µM
[10] = second compound 94.9 pM, first compound 0.3 µM
[11] = second compound 94.9 pM, first compound 0.949 µM
[12] = second compound 94.9 pM, first compound 3 µM
[13] = second compound 0.0003 µM, first compound 0.00949 µM
[14] = second compound 0.0003 µM, first compound 0.03 µM
[15] = second compound 0.0003 µM, first compound 0.0949 µM
[16] = second compound 0.0003 µM, first compound 0.3 µM
[17] = second compound 0.0003 µM, first compound 0.949 µM
[18] = second compound 0.0003 µM, first compound 3 µM
[19] = second compound 0.000949 µM, first compound 0.00949 µM
[20] = second compound 0.000949 µM, first compound 0.03 µM
[21] = second compound 0.000949 µM, first compound 0.0949 µM
[22] = second compound 0.000949 µM, first compound 0.3 µM
[23] = second compound 0.000949 µM, first compound 0.949 µM
[24] = second compound 0.000949 µM, first compound 3 µM
[25] = second compound 0.003 µM, first compound 0.00949 µM
[26] = second compound 0.003 µM, first compound 0.03 µM
[27] = second compound 0.003 µM, first compound 0.0949 µM
[28] = second compound 0.003 µM, first compound 0.3 µM
[29] = second compound 0.003 µM, first compound 0.949 µM
[30] = second compound 0.003 µM, first compound 3 µM

CNCc1ccc(-c2cc(-c3nc(-c4ccc(S(=O)(=O)C(C)C)cc4)cnc3N)on2)cc1 + COc1cc2c(cc1O)CCNC21CSC2c3c(OC(C)=O)c(C)c4c(c3C(COC1=O)N1C(O)C3Cc5cc(C)c(OC)c(O)c5C(C21)N3C)OCO4
IC50 (second compound 30 pM): > 3 µM
IC50 (second compound 94.9 pM): > 3 µM
IC50 (second compound 0.0003 µM): > 3 µM
IC50 (second compound 0.000949 µM): > 3 µM
IC50 (second compound 0.003 µM): < 0.00949 µM
viability, T/C [1]: 107%
viability, T/C [2]: 99%
viability, T/C [3]: 104%
viability, T/C [4]: 103%
viability, T/C [5]: 98%
viability, T/C [6]: 91.4%
viability, T/C [7]: 105%
viability, T/C [8]: 107%
viability, T/C [9]: 103%
viability, T/C [10]: 107%
viability, T/C [11]: 96.4%
viability, T/C [12]: 95.9%
viability, T/C [13]: 112%
viability, T/C [14]: 112%
viability, T/C [15]: 112%
viability, T/C [16]: 105%
viability, T/C [17]: 96.4%
viability, T/C [18]: 93.3%
viability, T/C [19]: 99.2%
viability, T/C [20]: 103%
viability, T/C [21]: 103%
viability, T/C [22]: 94.3%
viability, T/C [23]: 91.3%
viability, T/C [24]: 86.6%
viability, T/C [25]: 9.83%
viability, T/C [26]: 26.7%
viability, T/C [27]: 27.7%
viability, T/C [28]: 13.2%
viability, T/C [29]: 18.2%
viability, T/C [30]: 40.3%

Cc1cc(C)c(CNC(=O)c2cc(-c3ccc(CN4CCOCC4)cc3)cc3c2cnn3C2CCCC2)c(=O)[nH]1 + COc1cc2c(cc1O)CCNC21CSC2c3c(OC(C)=O)c(C)c4c(c3C(COC1=O)N1C(O)C3Cc5cc(C)c(OC)c(O)c5C(C21)N3C)OCO4
IC50 (second compound 30 pM): > 10 µM
IC50 (second compound 94.9 pM): > 10 µM
IC50 (second compound 0.0003 µM): > 10 µM
IC50 (second compound 0.000949 µM): > 10 µM
IC50 (second compound 0.003 µM): < 0.0316 µM
viability, T/C (second compound 30 pM, first compound 0.0316 µM): 106%
viability, T/C (second compound 30 pM, first compound 0.1 µM): 104%
viability, T/C (second compound 30 pM, first compound 0.316 µM): 105%
viability, T/C (second compound 30 pM, first compound 1 µM): 103%
viability, T/C (second compound 30 pM, first compound 3.16 µM): 97.2%
viability, T/C (second compound 30 pM, first compound 10 µM): 105%
viability, T/C (second compound 94.9 pM, first compound 0.0316 µM): 109%
viability, T/C (second compound 94.9 pM, first compound 0.1 µM): 101%
viability, T/C (second compound 94.9 pM, first compound 0.316 µM): 99.5%
viability, T/C (second compound 94.9 pM, first compound 1 µM): 104%
viability, T/C (second compound 94.9 pM, first compound 3.16 µM): 107%
viability, T/C (second compound 94.9 pM, first compound 10 µM): 106%
viability, T/C (second compound 0.0003 µM, first compound 0.0316 µM): 103%
viability, T/C (second compound 0.0003 µM, first compound 0.1 µM): 105%
viability, T/C (second compound 0.0003 µM, first compound 0.316 µM): 105%
viability, T/C (second compound 0.0003 µM, first compound 1 µM): 105%
viability, T/C (second compound 0.0003 µM, first compound 3.16 µM): 102%
viability, T/C (second compound 0.0003 µM, first compound 10 µM): 104%
viability, T/C (second compound 0.000949 µM, first compound 0.0316 µM): 87.8%
viability, T/C (second compound 0.000949 µM, first compound 0.1 µM): 94.6%
viability, T/C (second compound 0.000949 µM, first compound 0.316 µM): 91.8%
viability, T/C (second compound 0.000949 µM, first compound 1 µM): 83.9%
viability, T/C (second compound 0.000949 µM, first compound 3.16 µM): 85%
viability, T/C (second compound 0.000949 µM, first compound 10 µM): 85%
viability, T/C (second compound 0.003 µM, first compound 0.0316 µM): 6.27%
viability, T/C (second compound 0.003 µM, first compound 0.1 µM): 7.07%
viability, T/C (second compound 0.003 µM, first compound 0.316 µM): 9.74%
viability, T/C (second compound 0.003 µM, first compound 1 µM): 5.44%
viability, T/C (second compound 0.003 µM, first compound 3.16 µM): 5.81%
viability, T/C (second compound 0.003 µM, first compound 10 µM): 3.71%

Cc1sc2c(c1C)C(c1ccc(Cl)cc1)=NC(CC(=O)Nc1ccc(O)cc1)c1nnc(C)n1-2 (stereo not given) + COc1cc2c(cc1O)CCNC21CSC2c3c(OC(C)=O)c(C)c4c(c3C(COC1=O)N1C(O)C3Cc5cc(C)c(OC)c(O)c5C(C21)N3C)OCO4
IC50 (second compound 30 pM): 0.631 µM
IC50 (second compound 94.9 pM): 1.02 µM
IC50 (second compound 0.0003 µM): 2.54 µM
IC50 (second compound 0.000949 µM): > 3 µM
IC50 (second compound 0.003 µM): < 0.00949 µM
viability, T/C [1]: 94.4%
viability, T/C [2]: 96.4%
viability, T/C [3]: 93.8%
viability, T/C [4]: 69.3%
viability, T/C [5]: 39.7%
viability, T/C [6]: 21.8%
viability, T/C [7]: 103%
viability, T/C [8]: 100%
viability, T/C [9]: 95%
viability, T/C [10]: 80.1%
viability, T/C [11]: 51.4%
viability, T/C [12]: 26.9%
viability, T/C [13]: 110%
viability, T/C [14]: 110%
viability, T/C [15]: 102%
viability, T/C [16]: 88.7%
viability, T/C [17]: 65.7%
viability, T/C [18]: 47.4%
viability, T/C [19]: 89.6%
viability, T/C [20]: 88%
viability, T/C [21]: 80.9%
viability, T/C [22]: 87.3%
viability, T/C [23]: 68.2%
viability, T/C [24]: 52.7%
viability, T/C [25]: 6.44%
viability, T/C [26]: 6.85%
viability, T/C [27]: 6.03%
viability, T/C [28]: 8.32%
viability, T/C [29]: 2.93%
viability, T/C [30]: 0.8%

Cn1ncnc1[C@H]1c2n[nH]c(=O)c3cc(F)cc(c23)N[C@@H]1c1ccc(F)cc1 + COc1cc2c(cc1O)CCNC21CSC2c3c(OC(C)=O)c(C)c4c(c3C(COC1=O)N1C(O)C3Cc5cc(C)c(OC)c(O)c5C(C21)N3C)OCO4
IC50 (second compound 30 pM): > 3 µM
IC50 (second compound 94.9 pM): > 3 µM
IC50 (second compound 0.0003 µM): > 3 µM
IC50 (second compound 0.000949 µM): > 3 µM
IC50 (second compound 0.003 µM): < 0.00949 µM
viability, T/C [1]: 100%
viability, T/C [2]: 99.3%
viability, T/C [3]: 98.6%
viability, T/C [4]: 97%
viability, T/C [5]: 94.6%
viability, T/C [6]: 92.4%
viability, T/C [7]: 99.3%
viability, T/C [8]: 99.3%
viability, T/C [9]: 98.8%
viability, T/C [10]: 98.6%
viability, T/C [11]: 92.7%
viability, T/C [12]: 99%
viability, T/C [13]: 102%
viability, T/C [14]: 97.5%
viability, T/C [15]: 101%
viability, T/C [16]: 93.5%
viability, T/C [17]: 92.2%
viability, T/C [18]: 87.7%
viability, T/C [19]: 92.3%
viability, T/C [20]: 85.1%
viability, T/C [21]: 82%
viability, T/C [22]: 92.4%
viability, T/C [23]: 87%
viability, T/C [24]: 71.2%
viability, T/C [25]: 6.21%
viability, T/C [26]: 7.26%
viability, T/C [27]: 4.58%
viability, T/C [28]: 3.69%
viability, T/C [29]: 2.82%
viability, T/C [30]: 1.01%
